In patent US10583141B2, “N-substituted hydroxamic acids with carbon-based leaving groups as efficient HNO donors and uses thereof” (The Johns Hopkins University, priority 2015, dated 2020):
Marks after values point to notes of the source that are not given here.

Key:
[1] = Stability (half-life of donor decomposition) via 1H NMR protocol; assay type: physicochemical; conditions: 5 mM donor in 10% DMSO-d6, 10% D2O, 80% H2O, phosphate buffer (0.25M) with DTPA (0.2 mM), pH 7.4, 37° C., under argon
Source text: A ^1H NMR spectroscopy protocol was used to measure the half-life of donor decomposition by quantifying donor and the corresponding byproduct as a function of time (Guthrie, D. A.; Ho, A.; Takahashi, C. G.; Collins, A.; Morris, M.; Toscano, J. P. J. Org. Chem. 2015, 80, 1338-1348; and Guthrie, D. A.; Nourian, S.; Takahashi, C. G.; Toscano, J. P. J. Org. Chem. 2015, 80, 1349-1356). Based on distinctive chemical shifts of the compounds of the disclosure and their corresponding byproducts, the decomposition of the compounds of the disclosure and release of their byproduct was easily monitored. Utilizing this assay, the half-lives of particular compounds of the disclosure were determined under physiologically relevant conditions (Table 2).

[2] = Nitroxyl (HNO) production via N2O quantification in the headspace (GC), relative to Angeli's salt; conditions: N2O headspace analysis, 0.1 mM, 37° C. (SEM ± 5%; n = 3)
Source text: Nitrous oxide (N2O) is produced via the dimerization and dehydration of HNO, and is the most common marker for nitroxyl production (Fukuto et al., Chem. Res. Toxicol. 18:790-801 (2005)). […] Using either nitrous oxide gas or Angeli's salt (“AS”) as a standard, the relative amounts of N2O released from compounds of the disclosure is examined via gas chromatography (“GC”) headspace analysis.
Another procedure for determining N2O released from compounds of the disclosure is as follows. A Varian CP-3800 instrument equipped with a 1041 injector, electron capture detector, and a 25 m 5 Å molecular sieve capillary column was applied for the analysis of nitrous oxide (N2O). Grade 5.0 nitrogen was used as both the carrier (8 mL/min) and the make-up (22 mL/min) gas. For all the measurements, the column oven temperature was kept constant at 150° C., and the injector oven and the detector oven were held at 200° C. and 300° C., respectively. A 100 μL gastight syringe with a sample-lock was used for all gas injections. Samples were prepared in 6 mL Wheaton Clr headspace vials with volumes pre-measured for sample uniformity (actual vial volume ranges from 5.8-6.3 mL). Vials were charged with 3 mL of phosphate buffer containing the metal chelator, diethylenetriaminepentaacetic acid (DTPA), and fit with rubber septa and 20 mm aluminum seals. The vials were purged with argon and equilibrated for at least 10 minutes at 37° C. in a dry block heater. A 10 mM stock solution of Angeli's salt (AS) was prepared in 10 mM sodium hydroxide, and compounds of the disclosure (10 mM) were prepared in acetonitrile and used immediately after preparation. 30 μL of the stock solutions was transferred into vials using a gastight syringe, yielding final concentrations of 0.1 mM. Substrates were then incubated long enough to ensure complete decomposition and equilibration of N2O with the headspace. For each sample, 60 μL of the headspace was sampled and injected three times using a gastight syringe with a sample lock. The N2O yield was averaged and reported relative to the standard, Angeli's salt. HNO yields were measured either at the half-life of the donor or after complete decomposition of the donor and are reported relative to the standard HNO donor, Angeli's salt, as determined by N2O headspace analysis (SEM±5%; n=3).

[3] = Decomposition kinetics via UV-VIS protocol (growth of pyrazolone byproduct absorbance); assay type: physicochemical; conditions: phosphate buffer; for decomposition (UV-VIS, in words): pH 7.4, 37° C.
Method: (§1) A UV-VIS protocol was used to determine the decomposition kinetics of compounds 1, 3, 5 and 6. According to this protocol, decomposition of Compound 5, was monitored by examining the growth of the distinctive absorbance of the pyrazolone byproduct (λ=265 nm) at pH 7.4 and 37° C. in phosphate buffer as a function of pH (Guthrie, D. A., Kim, N. Y., Siegler, M. A.; Moore, C. D., Toscano, J. P. J. Am. Chem. Soc. 2012, 134, 1962-1965; and Guthrie, D. A.; Ho, A.; Takahashi, C. G.; Collins, A., Morris, M.; Toscano, J. P. J. Org. Chem. 2015, 80, 1338-1348). The decomposition of rate is pH-dependent, and based on the experimental kinetic data, the pKa of Compound 5 was estimated to be 10.7. Following this protocol, the decomposition kinetics for compounds […] were determined. […] Thus, the pKa values of Compounds 1 (10.0) and 3 (9.1) in 50% (v/v) aqueous ethanol were measured by titration with NaOH solution.

[4] = pKa by titration with NaOH solution; assay type: physicochemical; conditions: 50% (v/v) aqueous ethanol
Method: as §1

[5] = Stability in the presence of a pyrazolone by 1H NMR (mechanistic study); assay type: physicochemical
Method: A ^1H NMR Spectroscopy Protocol was used to confirm the formation of nitroso carbonyls following decomposition of compound 5. In this protocol, 0.5 mM Compound 5 was incubated in the presence of 0.5 mM 3,4-dimethyl-N-phenylpyrazolone in 0.25 M phosphate buffer with 0.2 mM DTPA at pH 7.4, 80% H2O, 10% D2O, and 10% DMSO-d6 at 37° C. under argon. Spectra were collected at the start of the experiment and after complete decomposition.
To eliminate the possibility of direct attack of 3,4-dimethyl-1-phenyl-1H-pyrazol-5(4H)-one on the amidic nitrogen of hydroxamic acid moiety in Compound 1 through a SN2 reaction (Glover, S. A.; Rauk, A.; Buccigross, J. M.; Campbell. J. J.; Hammond, G. P.; Guoning, M.; Andrews. L. E.: Gillson, A. M. Can. J. Chem. 2005, 83, 1492-1509), the stability of Compound 11 in the presence of 4-(acetyl-O-methoxyoxime)-N-phenyl-3-methyl-pyrazolone was confirmed by ^1H NMR.

[6] = HNO yield at the half-life of the donor
[7] = HNO yield after complete decomposition of the donor

half-life at 5 mM [1] | decomposition (UV-VIS, in words) [3] | pKa [4] | pKa ([3]; estimated from pH-dependent decomposition kinetic data, 37° C.) | stability in the presence of 4-(acetyl-O-methoxyoxime)-N-phenyl-3-methyl-pyrazolone [5] | Compound | % HNO [2, 6] | % HNO [2, 7]
120 h | stable for 1 hour | 10 | – | – | CO/N=C(\C)C1(N(O)C(C)=O)C(=O)N(c2ccccc2)N=C1C (stereo not shown) [Compound 1, N-hydroxy-N-(4-(1-(methoxyimino)ethyl)-3-methyl-5-oxo-1-phenyl-4,5-dihydro-1H-pyrazol-4-yl)acetamide] | 82^a % | –
96 h | – | – | – | – | CO/N=C(\C)C1(N(O)C(=O)OC)C(=O)N(C)N=C1C (stereo not shown) [Compound 4, Methyl hydroxy(4-(1-(methoxyimino)ethyl)-1,3-dimethyl-5-oxo-4,5-dihydro-1H-pyrazol-4-yl)carbamate] | 94^a % | –

The next lines start with the molecule.

Compound | half-life at 5 mM [1] | decomposition (UV-VIS, in words) [3] | pKa [4] | pKa ([3]; estimated from pH-dependent decomposition kinetic data, 37° C.) | stability in the presence of 4-(acetyl-O-methoxyoxime)-N-phenyl-3-methyl-pyrazolone [5] | % HNO [2, 6] | % HNO [2, 7]
CO/N=C(\C)C1(N(O)C(=O)OC)C(=O)N(c2ccccc2)N=C1C (stereo not shown) [Compound 3, Methyl hydroxy(4-(1-(methoxyimino)ethyl)-3-methyl-5-oxo-1-phenyl-4,5-dihydro-1H-pyrazol-4-yl)carbamate] | 48 h | decomposed slowly | 9.1 | – | – | 104^a % | –
CO/N=C(\C)C1(N(O)C(=O)N(C)C)C(=O)N(c2ccccc2)N=C1C (stereo not shown) [Compound 5, 1-hydroxy-1-(4-(1-(methoxyimino)ethyl)-3-methyl-5-oxo-1-phenyl-4,5-dihydro-1H-pyrazol-4-yl)-3,3-dimethylurea] | 0.417 h | – | – | 10.7 | – | – | >95^b %
CO/N=C(\C)C1(N(O)C(=O)N(C)C)C(=O)N(C)N=C1C (stereo not shown) [Compound 6, 1-hydroxy-1-(4-(1-(methoxyimino)ethyl)-1,3-dimethyl-5-oxo-4,5-dihydro-1H-pyrazol-4-yl)-3,3-dimethylurea] | 0.767 h | – | – | – | – | – | >95^b %
CC(=O)N(O)C1(C)C(=O)N(c2ccccc2)N=C1C (stereo not shown) [Compound 11, N-hydroxy-N-(3,4-dimethyl-5-oxo-1-phenyl-4,5-dihydro-1H-pyrazol-4-yl)-acetamide] | – | – | – | – | confirmed | – | –
